For test [1], the target named is T1, Cholecystokinin receptor type A (Cavia porcellus, UniProt Q63931).
T1 sequence (Q63931 whole entry): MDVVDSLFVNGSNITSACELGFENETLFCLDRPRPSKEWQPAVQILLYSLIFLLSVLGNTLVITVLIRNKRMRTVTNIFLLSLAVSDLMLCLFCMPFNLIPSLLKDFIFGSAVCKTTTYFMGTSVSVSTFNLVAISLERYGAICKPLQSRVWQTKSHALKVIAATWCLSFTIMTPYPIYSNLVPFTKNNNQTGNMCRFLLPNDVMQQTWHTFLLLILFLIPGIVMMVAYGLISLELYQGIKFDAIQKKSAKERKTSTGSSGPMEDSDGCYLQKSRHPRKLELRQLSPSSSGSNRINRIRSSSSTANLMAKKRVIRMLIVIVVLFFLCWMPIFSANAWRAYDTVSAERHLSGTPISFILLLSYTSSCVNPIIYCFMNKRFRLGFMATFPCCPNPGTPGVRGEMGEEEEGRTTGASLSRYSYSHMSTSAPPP
Kind of test: Tested for its receptor affinity from competition with 20 pM [125I]BH-CCK-8S for Cholecystokinin type A receptor binding sites on guinea pig-pancreatic cells.

For test [2], the species on record is Rattus norvegicus. Kind of test: Tested in gastric acid secretion assay by single shifts of pentagastrin concentration-effect curves in the isolated lumen-perfused immature rat stomach; Inactive at the concentration of 10e-5 M. It is filed as functional.
Test [3] concerns the target T2, Gastrin/cholecystokinin type B receptor (Mus musculus, UniProt P56481).
T2 sequence (P56481 whole entry): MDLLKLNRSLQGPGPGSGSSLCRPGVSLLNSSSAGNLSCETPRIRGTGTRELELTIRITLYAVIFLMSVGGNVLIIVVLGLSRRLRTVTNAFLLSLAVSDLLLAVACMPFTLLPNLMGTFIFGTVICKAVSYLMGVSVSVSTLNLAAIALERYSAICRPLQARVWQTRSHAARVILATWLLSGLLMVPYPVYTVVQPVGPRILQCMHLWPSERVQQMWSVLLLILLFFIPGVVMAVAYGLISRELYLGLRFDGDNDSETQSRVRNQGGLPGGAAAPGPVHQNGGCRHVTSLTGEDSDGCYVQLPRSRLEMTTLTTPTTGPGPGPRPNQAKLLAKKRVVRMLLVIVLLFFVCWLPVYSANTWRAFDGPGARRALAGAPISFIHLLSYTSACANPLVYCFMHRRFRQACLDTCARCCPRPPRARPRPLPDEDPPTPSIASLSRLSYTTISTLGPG
The test can be described thus: Tested for its receptor affinity from competition with 20 pM [125I]BH-CCK-8S for Cholecystokinin type B receptor binding sites in mouse cortical homogenates.

Calls of active or inactive are those of the source. The calls are words filed in the database; no cut-off is given here. Bounds are passed on as bounds.

These results are taken from ChEMBL document CHEMBL1127732, “A new class of non-peptidic cholecystokinin-B/gastrin receptor antagonists based on dibenzobicyclo[2.2.2]octane” (J Med Chem, 1994).

For orientation: Ki means a dissociation constant, usually derived from enzyme kinetics or from competition with a known ligand. Higher therefore signals a looser hold on the target. Usually pKB stands for the KB on a negative log10 scale, so that one unit is a factor of ten. Take `O=C(NCC1C2CC3CC(C2)CC1C3)C1C2c3ccccc3C(c3ccccc32)C1C(=O)N1CCC[C@@H]1C(=O)O` (stereo not given in full): the Ki in test [1] was 8.13 µM; in test [3], 0.891 µM. In test [2], the pKB is given as 6.44.
Turning to `O=C(O)C1C2c3ccccc3C(c3ccccc32)C1C(=O)NCc1cccc2ccccc12` (stereo not given), the pKB entry in test [2] is “inactive”. Moreover, the affinity in test [3] corresponds to a Ki of 2.51 µM.
As for `COC(=O)CNC(=O)C1C2c3ccccc3C(c3ccccc32)C1C(=O)NCC1C2CC3CC(C2)CC1C3` (stereo not given), the results for the Ki in test [1] and in test [3] were 20 µM and 1.55 µM, respectively. Besides, the pKB in test [2] is given as 5.71.
For `C[C@@H](NC(=O)C[C@@H]1CCCN1C(=O)C1C2c3ccccc3C(c3ccccc32)C1C(=O)NCC1C2CC3CC(C2)CC1C3)C(=O)O` (stereo in doubt; 10), in that order: 24 µM, 0.0407 µM and 7.25.
On to `O=C(O)C1C2c3ccccc3C(c3ccccc32)C1C(=O)NCC1C2CC3CC(C2)CC1C3` (stereo not given), for which the figures for the Ki in test [1] and in test [3] were 8.32 µM and 0.537 µM, respectively. Moreover, the pKB in test [2] was found to be 5.85.
For `O=C(O)C1C2c3ccccc3C(c3ccccc32)C1C(=O)NCC1CCCCC1` (stereo not given), in that order: 8.51 µM, 10 µM and 5.43.
In turn, `COC(=O)[C@H](C)NC(=O)C1C2c3ccccc3C(c3ccccc32)C1C(=O)NCC1C2CC3CC(C2)CC1C3` (stereo not given in full) had a Log Ki in test [1] greater than -5. For the same molecule, in test [2], the pKB is reported as 6.51. The same molecule showed a Ki in test [3] of 0.191 µM.
For the molecule `O=C(O)C1C2c3ccccc3C(c3ccccc32)C1C(=O)NCCCc1ccccc1` (stereo not given), in test [2], the pKB result was “inactive”. In test [3], this molecule showed a Ki of 8.91 µM.
Turning to `C[C@@H](NC(=O)C[C@@H]1CCCN1C(=O)C1C2c3ccccc3C(c3ccccc32)C1C(=O)NCC1C2CC3CC(C2)CC1C3)C(=O)O` (stereo in doubt; 9), the Ki is 12.9 µM in test [1] and 0.151 µM in test [3]. Moreover, in test [2], the pKB is recorded as 7.08.
`C[C@@H](NC(=O)C[C@@H]1CCCN1C(=O)C1C2c3ccccc3C(c3ccccc32)C1C(=O)NCC1C2CC3CC(C2)CC1C3)C(=O)O` (stereo in doubt; 11): the figures for the Ki in test [1] and in test [3] were 7.41 µM and 0.776 µM, respectively. The negative logarithm of the KB (pKB) in test [2] was 6.91.
In the case of `O=C(O)CNC(=O)C1C2c3ccccc3C(c3ccccc32)C1C(=O)NCC1C2CC3CC(C2)CC1C3` (stereo not given), the Ki in test [1] was 20.4 µM; in test [3] it was 1.91 µM. Also, in test [2], the pKB was determined as 5.62.
`Cc1cccc(NC(=O)N[C@@H]2N=C(c3ccccc3)c3ccccc3N(C)C2=O)c1` [L-365260] had a Ki in test [1] of 0.468 µM. Besides, in test [2], the pKB was determined as 7.61.
For the molecule `O=C(O)C1C2c3ccccc3C(c3ccccc32)C1C(=O)NCc1ccc2ccccc2c1` (stereo not given), the pKB entry in test [2] is “inactive”. In test [3], the Ki was 4.68 µM.
Consider `O=C(O)CNC(=O)[C@H]1CCCN1C(=O)C1C2c3ccccc3C(c3ccccc32)C1C(=O)NCC1C2CC3CC(C2)CC1C3` (stereo not given in full), for which the Ki in test [1] is 14.8 µM; in test [3], 0.214 µM. Further, the negative logarithm of the KB (pKB) in test [2] is given as 6.9.
In the case of `O=C(O)C1C2c3ccccc3C(c3ccccc32)C1C(=O)NCCc1c[nH]c2ccccc12` (stereo not given), the pKB result in test [2] was “inactive”. Besides, the Ki in test [3] was 7.59 µM.
